In patent US7700616B2, “Compounds and amyloid probes thereof for therapeutic and imaging uses” (Molecular Neuroimaging, LLC., priority 2006, dated 2010):

Columns and labels:
[1] = Protein binding (free ligand fraction in plasma); format: in vitro ADME; settings: obtained amyloid probe
Experimental: (§1) The labeling of the compounds of the invention was carried out under standard conditions (Na^123/125I, oxidizer, acidic medium) at ambient temperature. Radiochemical yields averaged 35-90%. The labeled compounds were readily purified by reverse-phase HPLC, and their radiochemical purity exceeded 95%.

[2] = Lipophilicity (LogD); format: physicochemical; settings: pH 7.4; obtained amyloid probe
Experimental: as §1

free ligand fraction in plasma [1]: 4%
logD [2]: 2.7
Structure (SMILES): CN(C)c1ccc(-n2nc3ccc(I)cc3n2)cc1 [MNI-187]
